This is an account of results in patent US20020091158A1, “Composition for and method of treatment using triterpenoids” (priority 1999, published 2002).

For data set [1] the following is noted: cited from earlier work.
In data set [2] the test system is BC-2 cells. Nature of the data set: Effect on BC-2 cells growth curve (KSHV/EBV-infected). As to conditions: 6 days. The class given is cell-based, human. The procedure:
(§1) The Glycyrrhizic acid (as ammonium salt supplied by Sigma) is dissolved in 25% of ethanol at 100 mM and adjusted to pH 6.8 with 1 N sodium hydroxide. The maximum inhibition activity with no effect on cell cycle is achieved with 4 mM, the dose-dependent range is within 2mM to 5mM.
(§2) BC-1 and BC-2 are cell lines established from two different HIV positive patients with non-Hodgkins lymphoma, specifically body cavity-based lymphomas. The cells are KSHV/EBV-infected and can be induced to enter lytic replication and viral production by treatment with TPA or with butyrate. These cells have an intact KSHV and EBV genomes and are ideal for KSHV and EBV isolation and study.(Cesarman, E. et al., Blood 1995 Oct.;86(7):2708-14.
(§3) The cells are treated for six days with alcohol 1%, glycyrrhizic acid 2 mM […], glycyrrhizic acid 3 mM and 4 mM in alcohol 0.5%, 0.75% and 1% respectively. After 6 days treatment cells growth decreased 50% using glycyrrhizic acid 2 mM and glycyrrhizic acid 3 mM. Cells growth decreased 80% using glycyrrhizic acid 4 mM.

For data set [3], the system named is Human β-actin. Nature of the data set: Northern blot of β-actin as control for total cellular mRNA transcription. The class given is cell-based. The procedure: (§4) Total RNA was extracted using RNAzol B (Tel-Test Inc., Friendswood, Tex.) according to the manufacturer's instructions, and Poly A+RNA was selected with Poly A+ Tract kit (Promega, Madison, Wis.). To eliminate any contaminating DNA, the RNA samples were treated with 2 U RNAse free DNAse (Promega).
(§5) For Northern blot analysis, […] of each mRNA sample was electrophoresed in 1.5% formaldehyde agarose gel and then transferred to a Gene Screen nylon membrane (Du Pont, Boston, Mass.) overnight with 20×SSC. Filters were UV-cross-linked to fix the RNA and hybridized at 42° C. with probes obtained by PCR amplification of KSHV cyclin, v-FLIP and LANA (orf 73) genes (20) and labeled by ^32P random priming (Amersham Life Science, Buckinghamshire, England). Human β-actin probe was used as a quantitative control to measure the total mRNA. Membranes were washed twice at room temperature and twice at 65° C. then exposed.
(§6) On the left side are indicated the probes used. On the right side are indicated the size of the transcripts. All probes correspond to viral latent genes, except the human b actin which is used as a quantitative control to measure the transcription of total cellular mRNA.
(§7) Lane 6 is the positive control.

In data set [4] the test system is BC-3 cells. Nature of the data set: Effect on BC-3 cells growth curve (latently KSHV-infected). The class given is cell-based, human. How it is done: as §1
BC-3 is a cell line established from a HIV negative patient with a primary effusion lymphoma. See Arvanitakis L, et al Establishment and characterization of a primary effusion (body cavity-based) lymphoma cell line (BC-3) harboring Kaposi's sarcoma-associated herpesvirus (KSHV/HHV-8) in the absence of Epstein-Barr virus. Blood 88:2648-2654, 1996. The cells are latently KSHV-infected, but lacks EBV, and can be induced to enter lytic replication and viral production by treatment with TPA or with butyrate. BC-3 has an intact KSHV genome and is suitable for the isolation and study of KSHV.
(§8) BJA-B is an Epstein-Barr virus (EBV)-negative lymphoblastoid cell line established from an African Burkift's lymphoma, KSHV negative cell line. See Menezes J, et al, Establishment and characterization of an Epstein-Barr virus (EBV)-negative lymphoblastoid B cell line (BJA-B) from an exceptional, EBV-genome-negative African Burkitt's lymphoma. Biomedicine 1975 Jul; 22 (4): 276-84. These cells are used as controls. Cells are cultured at concentration of 4×10^5/ml in RPMI with 20% of fetal calf serum in the presence or absence of different drug concentrations.
The cells are treated for six days with alcohol 0.5% and 1%, Glycyrrhizic acid 2 mM and 4 mM in alcohol 0.5% and 1% respectively. Cells growth is 50% inhibited by Glycyrrhizic acid 2 mM, while treatment with Glycyrrhizic acid 4 mM determines cell death.

The subject of data set [5] is BC-1 cells. Nature of the data set: Effect on BC-1 cells growth curve (KSHV/EBV-infected). The class given is cell-based, human. As to conditions: 6 days. The procedure:
as §1, §2, §3

In data set [6] the test system is KSHV cyclin, v-FLIP and LANA (orf 73) genes. Nature of the data set: Northern blot of viral latent genes transcription in BC-3 cells. To be noted: for effect on the viral latent genes transcription: BC-3 cells, six days. The class given is cell-based, Kaposi's sarcoma-associated herpesvirus (KSHV). The procedure:
as §4, §5, §6, §7

The subject of data set [7] is BJAB cells. Nature of the data set: Effect on BJAB cells growth curve (KSHV negative control cells). The class given is cell-based, human. To be noted: six days, 2 mM and 4 mM in alcohol 0.5% and 1%. How it is done: as §1, §8
Cells are treated for six days with alcohol 0.5% and 1%, Glycyrrhizic acid 2 mM and 4 mM in alcohol 0.5% and 1% respectively. Glycyrrhizic acid has no effect on the cells proliferation.

In data set [8] the test system is KSHV latent antigens. Nature of the data set: Immunofluorescence assay of BC-3 cells for latent KSHV antigens. The class given is cell-based, Kaposi's sarcoma-associated herpesvirus (KSHV). To be noted: 4 mM, stained with KS patient serum (panel C). The procedure:
Secondary antibody FITC-conjugated F(ab′)2 fragment of rabbit antihuman IgG (DAKO, Carpinteria, Calif.) diluted 1:40 in MB was applied. Cell nuclei were counterstained for 5 min, in PBS containing 17 μM Dapi (4′-6′-diamino-2′-phenyidole dihydrochloride [Boehringer Mannheim Corp., Indianapolis, Ind.]), rinsed in TBST, mounted with Vectashield (Vector Lab. Inc., Burlingame, Calif.) and examined in a fluorescence microscope Axioplan2 (Zeiss, Germany). BC-3 cells were run in parallel as controls.
In panel C the BC-3 cells have been treated with glycyrrhizic acid 4 mM and stained with KS patient serum. In panel D BC-3 cells have been treated with glycyrrhizic acid 4 mM and stained with Dapi to localize the nuclei. Kaposi's Sarcoma patient serum is used primary antibody to stain the KSHV latent antigens.

Where two headings read alike, the source gives them in different places.

As to `CC1(C)[C@@H](O[C@H]2O[C@H](C(=O)O)[C@@H](O)[C@H](O)[C@H]2O[C@@H]2O[C@H](C(=O)O)[C@@H](O)[C@H](O)[C@H]2O)CC[C@]2(C)[C@H]3C(=O)C=C4[C@@H]5C[C@@](C)(C(=O)O)CC[C@]5(C)CC[C@@]4(C)[C@]3(C)CC[C@@H]12` [Glycyrrhizic acid], in data set [1] (hot water and alcohol), the solubility result is listed as “freely soluble”. In addition, the cells growth decreased in data set [2] (2 mM) is given as 50%; in data set [2] (3 mM), 50%; in data set [2] (4 mM), 80%; in data set [5] (2 mM), 50%; in data set [5] (3 mM), 50%; in data set [5] (4 mM) it was 80%. Moreover, the “transcription of total cellular mRNA (b actin)” value in data set [3] (BJA-B cells, six days, 2 mM and 4 mM (lanes 1-5)) is “not inhibited”. In data set [3] (all samples, BJA-B and BC-3), the “effect on cellular mRNA (β actin)” value is on record as “does not have any effect”. In addition, the “effect on cells growth” value in data set [4] (BC-3 cells, six days, 4 mM) is listed as “cell death”. In addition, the inhibition at 2000 µM in data set [4] (Homo sapiens, 144 h, BC-3 cells, six days, 2 mM, read-out: cells growth inhibited) was determined as 50%. Moreover, the “KSHV infected cells killed” value in data set [4] (six days after treatment) is given as “completely killed”. In addition, the “concentration of maximum inhibition activity with no effect on cell cycle” value in data set [6] came out at 4 mM. Also, the “effect on the viral latent genes transcription” value is recorded as “does not show any effect” in data set [6] (2 mM (lane 7)) and “almost totally inhibited” in data set [6] (4 mM (lane 8)). In addition, the “effect on the cells proliferation” value in data set [7] is on record as “no effect”. The “expression of latent viral antigens” value in data set [8] is “inhibits the expression of latent viral antigens”.
`CC1(C(=O)O)CCC2(C)CCC3(C)C(=CC(=O)C4C5(C)CCC(OC6OC(C(=O)O)C(O)C(O)C6OC6OC(C(=O)O)C(O)C(O)C6O)C(C)(C)C5CCC43C)C2C1.N.O.O.O.O.O` (stereo not drawn) [Ammonium glycyrrhizinate pentahydrate]: in data set [1] (ammonia water, ethanol, glacial acetic acid), the solubility result is recorded as “soluble”.
